pIC50, pKd: −log10 of the molar value. Like-named read-outs stand apart in the source and are kept apart here.
What was measured:
[1] = system: H1299 p53 Y220C; assay: Cell Proliferation Assay (CellTiter-Glo, CTG), H1299 p53 Y220C (NClH1299-inducible p53 Y220C); assay type: cell-based; conditions: Homo sapiens, NCI-H1299, 120 h, 5 days
How it was run: (§1)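 Tet-One inducible p53 Y220C or R273H constructs were stably introduced into NCI-H1299 by lentiviral transduction; NUGC3 was used as is. Cells (250-500 per well) were exposed to compound for 5 days, then CellTiter-Glo was added for 10 min at room temperature and IC50 was calculated from luminescence.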

[2] = target: p53 Y220C (Homo sapiens, UniProt P04637, Y220C); assay: Luciferase Reporter Assay (Luc), p53 response element, NClH1299 cells with inducible p53 Y220C; assay type: cell-based; conditions: 6 hour; for AC50: read-out: Luc P53 Y220C AC50
How it was run: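 Cells were seeded at 5,000 per well and induced with 0.5 ug/mL doxycycline for 24 hours, then exposed to compound for 6 hours. One-Glo reagent was added, plates shaken 5 minutes at room temperature, and luminescence read immediately.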

[3] = target: T1, p53 Y220C mutant protein (amino acid residues 94-293) (Homo sapiens, UniProt P04637, Y220C); assay: Surface Plasmon Resonance (SPR) assay, Kd_kinetic; assay type: binding; conditions: SPR, p53 Y220C, read-out: SPR P53 Y220C KD kinetic
T1 construct: p53 Y220C mutant protein (amino acid residues 94-293)
How it was run: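 Kinetic dissociation constants derived by 1:1 model fit of SPR data acquired at 16 or 20 °C, pH 7.5 Tris/NaCl running buffer with 1% DMSO.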

[4] = system: NUGC3 p53 Y220C; assay: Cell Proliferation Assay (CellTiter-Glo, CTG), NUGC3 p53 Y220C; assay type: cell-based; conditions: Homo sapiens, NUGC-3, 120 h, 5 days
How it was run: as §1

[5] = system: H1299 p53 R273H; assay: Cell Proliferation Assay (CellTiter-Glo, CTG), H1299 p53 R273H (NClH1299-inducible p53 R273H); assay type: cell-based; conditions: Homo sapiens, NCI-H1299, 120 h, 5 days
How it was run: as §1

[6] = NClH1299-inducible p53 Y220C cells, CellTiter-Glo
[7] = AC50, luciferase reporter, NClH1299 inducible p53 Y220C
[8] = Emax, luciferase reporter, NClH1299 inducible p53 Y220C
[9] = NClH1299-inducible p53 R273H cells, CellTiter-Glo
[10] = NClH1299-inducible p53 Y220C cells
[11] = AC50, NClH1299 cells with inducible p53 Y220C
[12] = Emax, NClH1299 cells with inducible p53 Y220C, 10 uM tool compound as positive control
[13] = NClH1299-inducible p53 R273H cells
[14] = luciferase reporter, NClH1299 inducible p53 Y220C, 10 uM tool compound as positive control
[15] = luciferase reporter, NClH1299 inducible p53 Y220C

T1 sequence (P04637 94-293, stated change not applied): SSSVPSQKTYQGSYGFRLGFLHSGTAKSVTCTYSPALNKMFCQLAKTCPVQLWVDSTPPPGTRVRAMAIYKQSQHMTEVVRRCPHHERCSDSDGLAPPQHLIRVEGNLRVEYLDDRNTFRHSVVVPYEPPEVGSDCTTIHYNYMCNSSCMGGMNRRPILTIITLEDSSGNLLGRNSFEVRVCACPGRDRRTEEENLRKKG

Compound | pIC50 [1, 6] | AC50 [2, 7] | Emax [2, 8] | pKd [3] | pIC50 ([4]; NUGC3 cells, CellTiter-Glo) | pIC50 [5, 9] | pIC50 [1, 10] | AC50 [2, 11] | Emax [2, 12] | pIC50 ([4]; NUGC3 cells) | pIC50 [5, 13] | pIC50 ([1]; CellTiter-Glo, H1299 p53 Y220C) | Emax [2, 14] | AC50 [2, 15] | pKd ([3]; kinetic KD) | pIC50 ([4]; CellTiter-Glo, NUGC3 p53 Y220C) | pIC50 ([5]; CellTiter-Glo, H1299 p53 R273H)
CN1CC[C@@H](Nc2cccn3c(SC(F)(F)F)c(C#CCNc4ccc(C(=O)NCCS(C)(=O)=O)cc4)cc23)[C@@H](F)C1 [Example 430, 4-{[3-(8-{[(3S,4R)-3-fluoro-1-methylpiperidin-4-yl]amino}-3-[(trifluoromethyl)sulfanyl]indolizin-2-yl)prop-2-yn-1-yl]amino}-N-(2-methanesulfonylethyl)benzamide] | > 6.12 | < 750 nM | > 90% | > 8.00 | > 6.12 | ≤ 5.00 |  |  |  |  |  |  |  |  |  |  | 
CNC(=O)c1ccc(NCC#Cc2cc3c(N[C@@H]4CN(C)C[C@@H]4F)nccn3c2SC(F)(F)F)c(OC)c1 [Example 325] | > 6.12 | < 750 nM | > 90% | > 8.00 | > 6.12 | ≤ 5.00 |  |  |  |  |  |  |  |  |  |  | 
CN1CC[C@@H](Nc2cccn3c(SC(F)(F)F)c(C#CCNc4ccc(P(C)(C)=O)nc4)cc23)[C@@H](F)C1 [Example 420, 2-(3-{[6-(dimethylphosphoryl)pyridin-3-yl]amino}prop-1-yn-1-yl)-N-[(3S,4R)-3-fluoro-1-methylpiperidin-4-yl]-3-[(trifluoromethyl)sulfanyl]indolizin-8-amine] | > 6.12 | < 750 nM | 80 to 90% | > 8.00 | > 6.12 | ≤ 5.00 |  |  |  |  |  |  |  |  |  |  | 
CN1CC[C@@H](Nc2cccn3c(SC(F)(F)F)c(C#CCNc4ccc(C(=O)NC[C@H](O)CO)cc4)cc23)[C@@H](F)C1 [Example 460] |  |  |  | > 8.00 |  |  | > 6.12 | < 750 nM | > 90% | > 6.12 | ≤ 5.00 |  |  |  |  |  | 
CNC(=O)c1ccc(OC)c(NCC#Cc2cc3c(N[C@@H]4CNC[C@@H]4F)nccn3c2SC(F)(F)F)c1 [Example 209] |  |  |  |  |  |  |  |  |  |  |  | 5.82 to 6.12 | > 90% | < 750 nM | > 8.00 | > 6.12 | ≤ 5.00
CNC(=O)c1ccc(OC)c(NCC#Cc2cc3c(N[C@@H]4CN(C)C[C@@H]4F)nccn3c2SC(F)(F)F)n1 [Example 211] |  |  |  |  |  |  |  |  |  |  |  | > 6.12 | 80 to 90% | < 750 nM | > 8.00 | 5.82 to 6.12 | ≤ 5.00
COc1ccc(C(=O)NCC2CN(C)C2)cc1NCC#Cc1nc2c(N[C@@H]3CCOC[C@@H]3F)cccn2c1SC(F)(F)F [Example 228] | < 5.52 | > 3000 nM | < 70% | > 8.00 | > 6.12 | ≤ 5.00 |  |  |  |  |  |  |  |  |  |  | 
CNC(=O)c1ccc(OC)c(NCC#Cc2nc3c(N[C@@H]4CN(C)C[C@@H]4F)cccn3c2CC(F)(F)F)n1 [Example 262] | > 6.12 | 750 to 1500 nM | 70 to 80% | > 8.00 | 5.82 to 6.12 | ≤ 5.00 |  |  |  |  |  |  |  |  |  |  | 
CN1CC[C@@H](Nc2cccn3c(SC(F)(F)F)c(C#CCNc4ccc(C(N)=O)cc4)nc23)[C@@H](F)C1 [Example 314] | > 6.12 | < 750 nM | > 90% | > 8.00 | > 6.12 | ≤ 5.00 |  |  |  |  |  |  |  |  |  |  | 
CNC(=O)c1ccc(NCC#Cc2cc3c(N[C@@H]4CCN(C5COC5)C[C@@H]4F)cccn3c2SC(F)(F)F)c(OC)c1 [Example 504, 4-{[3-(8-{[(3S,4R)-3-fluoro-1-(oxetan-3-yl)piperidin-4-yl]amino}-3-[(trifluoromethyl)sulfanyl]indolizin-2-yl)prop-2-yn-1-yl]amino}-3-methoxy-N-methylbenzamide] |  |  |  | > 8.00 |  |  | > 6.12 | < 750 nM | > 90% | > 6.12 | > 5.30 |  |  |  |  |  | 
CNC(=O)c1ccc(NCC#Cc2nn3c(N[C@@H]4CCN(C)C[C@@H]4F)ccnc3c2SC(F)(F)F)c(OC)c1 [Example 205] |  |  |  |  |  |  |  |  |  |  |  | < 5.52 | < 70% | > 3000 nM | 7.00 to 8.00 | < 5.52 | ≤ 5.00
CNC(=O)c1ccc(NCC#Cc2nc3c(NC4CCS(=O)(=O)C4)cccn3c2SC(F)(F)F)c(OC)c1 (single isomer, unassigned) [Example 322] | 5.82 to 6.12 | 750 to 1500 nM | > 90% | 7.00 to 8.00 | 5.82 to 6.12 | ≤ 5.00 |  |  |  |  |  |  |  |  |  |  | 

From patent publication US20260374766A1, “METHODS FOR TREATING CANCER” (Antares Therapeutics, Inc., priority 2022, published 2026)
